The values that follow come from US20260108521A1, “GSPT1 DEGRADERS, COMPOSITIONS COMPRISING THE DEGRADER, AND METHODS OF USING THE SAME” (BIOFRONT LTD, priority 2022, published 2026).

One assay addresses T1, GSPT1 protein (Homo sapiens, UniProt P15170+Q96SW2).
T1 construct: endogenous in cells; host or cells: HL-60 cells
The experiment in a line: GSPT1 degradation assay (western blot) in HL-60 cells. The assay is classed as cell-based. As to conditions: GSPT1 protein level, 2h incubation, western blot normalized to beta-Actin; for inhibition at 0.1 µM: 0.1 μM compound; for inhibition at 1 µM: 1 μM compound. The protocol: HL-60 cells (4×10^^6 cells/well) were seeded in 6-well culture plate (Costar, 3516) and treated with a variety of concentrations of test compound. After 2h incubation, cells were collected and lysed. The protein concentration was determined by BCA protein assay kit from Thermo (23227). The GSPT1 protein level was determined by western blots, using GSPT1 polyclonal antibody. Proteins were loaded into each well of the pre-casting gels and subjected to electrophoretic separation by SDS-PAGE. The protein resolved by SDS-PAGE were transferred to PVDF, blocked by 5% skim milk and probed with anti-GSPT1 antibody (Proteintech, 10763-1-AP) or anti-β-actin antibody (CST, 3700S), using following standard western blotting procedure. Blots intensities were quantified using ImageJ software and the intensity of GSPT1 bands were normalized to beta-Actin bands, respectively. The GSPT1 degradation results were then calculated. Reported compound C84971 (see WO2021126974A1 and WO2021126973A1) was used as a reference.
On the technique in general: In western blotting, separated proteins are transferred to a membrane and probed.

The next assay relates to HL-60 cells. The experiment in a line: Cell viability assay (CellTiter-Glo). It is filed as cell-based. As to conditions: Homo sapiens, 72 h incubation, 6-point serial dilution. The protocol: HL-60 cells were seeded at a density of 7000 cells per well in 96-well culture plates (Corning 3903) with IMDM and treated with test compounds following a 6-point serial dilution. RPMI 1640 (0.1% DMSO) was used as control for each well. After 72 h incubation, cell viability was determined using the CellTiter-Glo assay kit (Promega, G9242) according to the manufacturer's instructions. The dose-response curves were determined and IC50 values were calculated using the GraphPad Prism software following a nonlinear regression method.
(In ATP-based viability assays light output follows the ATP content of the culture.)

T1 sequence (P15170 whole entry): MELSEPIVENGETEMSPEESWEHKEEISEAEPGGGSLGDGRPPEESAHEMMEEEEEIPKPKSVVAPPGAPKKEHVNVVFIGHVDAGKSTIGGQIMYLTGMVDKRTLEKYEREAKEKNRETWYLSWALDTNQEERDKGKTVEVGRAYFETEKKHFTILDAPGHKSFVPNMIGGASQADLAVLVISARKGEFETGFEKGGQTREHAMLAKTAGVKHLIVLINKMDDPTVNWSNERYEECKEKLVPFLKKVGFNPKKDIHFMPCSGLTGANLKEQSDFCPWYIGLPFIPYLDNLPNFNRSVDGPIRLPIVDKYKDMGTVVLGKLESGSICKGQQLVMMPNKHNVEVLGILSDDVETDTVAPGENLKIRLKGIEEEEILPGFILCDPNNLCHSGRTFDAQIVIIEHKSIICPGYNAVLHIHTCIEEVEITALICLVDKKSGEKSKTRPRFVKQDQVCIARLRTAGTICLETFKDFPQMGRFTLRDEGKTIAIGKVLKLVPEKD
T1 sequence (Q96SW2 whole entry): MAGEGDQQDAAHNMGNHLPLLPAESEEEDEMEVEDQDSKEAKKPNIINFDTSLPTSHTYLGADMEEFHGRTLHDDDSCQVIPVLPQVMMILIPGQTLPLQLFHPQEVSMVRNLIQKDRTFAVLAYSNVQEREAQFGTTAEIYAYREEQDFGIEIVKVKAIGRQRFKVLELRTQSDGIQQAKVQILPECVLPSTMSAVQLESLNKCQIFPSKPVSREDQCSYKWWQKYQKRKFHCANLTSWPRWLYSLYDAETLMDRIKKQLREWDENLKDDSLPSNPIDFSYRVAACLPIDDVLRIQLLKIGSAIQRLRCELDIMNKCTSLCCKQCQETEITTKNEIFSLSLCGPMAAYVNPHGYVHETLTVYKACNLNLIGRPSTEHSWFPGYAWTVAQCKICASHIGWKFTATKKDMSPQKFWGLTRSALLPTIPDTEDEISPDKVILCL
T1 sequence (Q16531 whole entry partner): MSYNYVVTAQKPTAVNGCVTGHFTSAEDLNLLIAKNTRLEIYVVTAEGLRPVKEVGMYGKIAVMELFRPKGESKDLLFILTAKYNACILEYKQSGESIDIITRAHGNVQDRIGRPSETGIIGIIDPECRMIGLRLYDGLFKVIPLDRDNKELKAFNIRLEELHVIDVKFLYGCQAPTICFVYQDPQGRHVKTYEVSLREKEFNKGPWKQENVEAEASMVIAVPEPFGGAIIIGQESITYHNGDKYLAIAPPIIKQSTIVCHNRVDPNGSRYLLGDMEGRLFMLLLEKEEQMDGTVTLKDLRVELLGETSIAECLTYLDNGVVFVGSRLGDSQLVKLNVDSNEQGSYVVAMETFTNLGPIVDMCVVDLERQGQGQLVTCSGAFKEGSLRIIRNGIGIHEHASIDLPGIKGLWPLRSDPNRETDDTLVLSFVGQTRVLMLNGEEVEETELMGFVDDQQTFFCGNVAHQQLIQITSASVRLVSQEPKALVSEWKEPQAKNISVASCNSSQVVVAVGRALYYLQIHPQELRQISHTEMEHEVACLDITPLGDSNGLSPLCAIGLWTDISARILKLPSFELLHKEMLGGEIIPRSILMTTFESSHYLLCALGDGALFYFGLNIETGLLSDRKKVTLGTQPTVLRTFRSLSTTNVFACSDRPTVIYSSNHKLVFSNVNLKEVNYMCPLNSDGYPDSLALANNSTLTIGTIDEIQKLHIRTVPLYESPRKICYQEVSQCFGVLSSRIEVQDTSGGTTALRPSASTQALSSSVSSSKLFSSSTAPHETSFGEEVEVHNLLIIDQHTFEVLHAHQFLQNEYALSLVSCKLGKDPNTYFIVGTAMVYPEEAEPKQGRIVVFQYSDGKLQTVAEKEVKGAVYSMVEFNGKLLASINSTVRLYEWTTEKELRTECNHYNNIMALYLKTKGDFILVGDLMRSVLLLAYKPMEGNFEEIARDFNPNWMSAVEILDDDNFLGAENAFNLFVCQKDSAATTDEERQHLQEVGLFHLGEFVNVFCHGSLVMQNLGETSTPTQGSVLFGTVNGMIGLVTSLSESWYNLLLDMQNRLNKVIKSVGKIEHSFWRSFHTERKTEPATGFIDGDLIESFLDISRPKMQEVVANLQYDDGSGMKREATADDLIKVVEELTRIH

Regarding `CCc1c[nH]c2ncc(-c3cccc(N4CCCN(CC5CCN(c6ccc7c(c6)C(=O)N(C6CCC(=O)NC6=O)C7=O)CC5)C4=O)c3)c(Cl)c12` (stereo not drawn) [Compound A, 5-(4-((3-(3-(4-chloro-3-ethyl-1H-pyrrolo[2,3-b]pyridin-5-yl)phenyl)-2-oxotetrahydropyrimidin-1(2H)-yl)methyl)piperidin-1-yl)-2-(2,6-dioxopiperidin-3-yl)isoindoline-1,3-dione], on GSPT1 protein, testing at 0.1 µM gave an inhibition of 85% and the inhibition at 1 µM was > 95%. This compound yielded an IC50 with HL-60 cells of 0.01 µM.

At GSPT1 protein, `O=C1CCC(N2C(=O)c3cc(F)c(N4CCC(CCN5CCCN(c6cccc(-c7cnc8[nH]cc(C9CC9)c8c7Cl)c6)C5=O)CC4)cc3C2=O)C(=O)N1` (stereo not drawn) [Compound B, 5-(4-(2-(3-(3-(4-chloro-3-cyclopropyl-1H-pyrrolo[2,3-b]pyridin-5-yl)phenyl)-2-oxotetrahydropyrimidin-1(2H)-yl)ethyl)piperidin-1-yl)-2-(2,6-dioxopiperidin-3-yl)-6-fluoroisoindoline-1,3-dione] gave an inhibition at 0.1 µM of 45% and an inhibition at 1 µM of 75%. In the assay on HL-60 cells, this compound displayed an IC50 of 0.122 µM.

In the case of `O=C1CCC(N2Cc3ccc(N4CCNC4=O)cc3C2=O)C(=O)N1` (stereo not drawn) [Compound C84971, reference compound], on GSPT1 protein, the inhibition at 0.1 µM came to 0% and the inhibition at 1 µM turned out to be 0%. In the assay with HL-60 cells, the IC50 is > 5 µM.

As to `CCc1c[nH]c2ncc(-c3cccc(N4CCCN(CCC5CN(c6ccc7c(c6)C(=O)N(C6CCC(=O)NC6=O)C7=O)C5)C4=O)c3)c(Cl)c12` (stereo not drawn) [Compound F, 5-(3-(2-(3-(3-(4-chloro-3-ethyl-1H-pyrrolo[2,3-b]pyridin-5-yl)phenyl)-2-oxotetrahydropyrimidin-1(2H)-yl)ethyl)azetidin-1-yl)-2-(2,6-dioxopiperidin-3-yl)isoindoline-1,3-dione], at GSPT1 protein, the inhibition at 0.1 µM was determined as 86% and the inhibition at 1 µM came out at 95%. Moreover, inhibition in the assay on HL-60 cells was half-maximal at 0.0092 µM (IC50).

As usually defined, the inhibition is the share of the control response that was lost under treatment. Read a high inhibition as strong suppression. One may read the IC50 as the concentration needed to halve the response being measured.
